In general, melting point refers to the temperature of the solid-liquid transition.

Data on 33 molecules can be found in patent publication US6911469B2, “Sulfonamide compounds and pharmaceutical use thereof” (Fujisawa Pharmaceutical Co., Ltd., priority 1997, dated 2005).

`CCCCCS(=O)(=O)NC(=O)c1ccc2nc(C)n(Cc3ccc4ccccc4c3Br)c2n1` [Example 10, 3-(1-bromo-2-naphthyl)methyl-2-methyl-5-(n-pentanesulfonylcarbamoyl)-3H-imidazo[4,5-b]pyridine]: the melting point lay in the range of 200 to 201 °C.
For the molecule `Cc1nc2ccc(C(=O)NS(=O)(=O)c3ccccc3)nc2n1Cc1ccc(C=O)cc1Cl` [Example 92, 5-(benzenesulfonylcarbamoyl)-3-(2-chloro-4-formylbenzyl)-2-methyl-3H-imidazo[4,5-b]pyridine], the melting point was in the range of 253 to 255 °C.
On to `Cc1nc2ccc(C(=O)NS(=O)(=O)c3ccccc3)nc2n1Cc1ccc(OCCN(C)c2ccccn2)cc1Cl` [Example 82, 5-(benzenesulfonylcarbamoyl)-3-(2-chloro-4-((2-(N-methyl-N-(2-pyridinyl)amino)ethyl)oxy)benzyl)-2-methyl-3H-imidazo[4,5-b]pyridine], for which the melting point lay within 104 to 105 °C.
In the case of `Cc1cc(Cl)ccc1Cn1c(C)nc2ccc(C(=O)NS(=O)(=O)c3ccccc3)nc21` [Example 28-2, 5-benzenesulfonylcarbamoyl-3-(4-chloro-2-methylbenzyl)-2-methyl-3H-imidazo[4,5-b]pyridine], the melting point lay within 235 to 237 °C.
Turning to `C=Cc1ccc(Cn2c(C)nc3ccc(C(=O)NS(=O)(=O)c4ccccc4)nc32)c(Cl)c1` [Example 71, 5-(benzenesulfonylcarbamoyl)-3-(2-chloro-4-vinylbenzyl)-2-methyl-3H-imidazo[4,5-b]pyridine], the melting point was in the range of 174 to 175 °C.
In turn, `Cc1nc2ccc(C(=O)NS(=O)(=O)c3ccccc3)nc2n1Cc1ccc(C(=O)O)cc1Cl` [Example 116, 5-(benzenesulfonylcarbamoyl)-3-(4-carboxy-2-chlorobenzyl)-2-methyl-3H-imidazo[4,5-b]pyridine] yielded a melting point of 155 to 160 °C.
Under `CCCCCS(=O)(=O)NC(=O)c1cc(C)c2nc(C)n(Cc3ccc4ccccc4c3Br)c2n1` [Example 104-1, 3-(1-bromonaphthalen-2-ylmethyl)-2,7-dimethyl-5-(pentanesulfonylcarbamoyl)-3H-imidazo[4,5-b]pyridine] stands 210 to 211 °C.
As for `CSc1ccc(Cn2c(C)nc3ccc(C(=O)NS(=O)(=O)c4ccccc4)nc32)c(Cl)c1` [Example 83, 5-(benzenesulfonylcarbamoyl)-3-(2-chloro-4-(methylthio)benzyl)-2-methyl-3H-imidazo[4,5-b]pyridine], the melting point fell in the range of 165 to 166 °C.
For `Cc1nc2ccc(C(=O)NS(=O)(=O)c3ccccc3)nc2n1Cc1ccc(C#N)cc1Cl` [Example 108, 5-(benzenesulfonylcarbamoyl)-3-(2-chloro-4-cyanobenzyl)-2-methyl-3H-imidazo[4,5-b]pyridine] the value was 242 to 243 °C.
For the molecule `Cc1[nH]c2ccc(C(=O)NS(=O)(=O)c3ccccc3)nc2c1Cc1ccc(Cl)cc1Cl` [Example 26-2, 3-(2,4-dichlorobenzyl)-2-methyl-5-(benzenesulfonylcarbamoyl)pyrrolo[3,2-b]pyridine], the melting point was more than 250 °C.
Take `Cc1nc2ccc(C(=O)NS(=O)(=O)/C=C/c3ccccc3)nc2n1Cc1ccc(-c2ccccc2)cc1Cl` [Example 67-2, (E)-3-(2-chloro-4-phenylbenzyl)-2-methyl-5-[(2-phenylethenyl)sulfonylcarbamoyl]-3H-imidazo[4,5-b]pyridine]: the melting point lay in the range of 216 to 218 °C.
Turning to `Cc1cc(C(=O)NS(=O)(=O)/C=C/c2ccccc2)nc2c1nc(C)n2Cc1ccc2ccccc2c1Br` [Example 104-3, (E)-3-(1-bromonaphthalen-2-ylmethyl)-2,7-dimethyl-5-((2-phenylethenyl)sulfonylcarbamoyl)-3H-imidazo[4,5-b]pyridine], the melting point fell in the range of 262 to 263 °C.
`Cc1nc2ccc(C(=O)NS(=O)(=O)c3ccccc3)nc2n1Cc1ccc(OCc2ccccc2)cc1Cl` [Example 77, 5-(benzenesulfonylcarbamoyl)-3-(4-benzyloxy-2-chlorobenzyl)-2-methyl-3H-imidazo[4,5-b]pyridine] gave a melting point of 190 to 191 °C.
Consider `CCCCS(=O)(=O)NC(=O)c1ccc2nc(C)n(Cc3ccc(Cl)cc3Br)c2n1` [Example 13-3, 3-(2-bromo-4-chlorobenzyl)-5-(n-butanesulfonylcarbamoyl)-2-methyl-3H-imidazo[4,5-b]pyridine], for which the melting point lay in the range of 145 to 146 °C.
`Cc1nc2ccc(C(=O)NS(=O)(=O)c3ccccc3)nc2n1Cc1ccc(Cl)cc1Br` [Example 13-2, 5-(benzenesulfonylcarbamoyl)-3-(2-bromo-4-chlorobenzyl)-2-methyl-3H-imidazo[4,5-b]pyridine]: the melting point fell in the range of 189 to 190 °C.
`Cc1nc(=O)c2ccc(C(=O)NS(=O)(=O)c3ccccc3)cc2n1Cc1ccc(Cl)cc1Cl` [Example 47-2, 7-(benzenesulfonylcarbamoyl)-1-(2,4-dichlorobenzyl)-2-methyl-4(1H)-quinazolinone] displayed a melting point of 214 to 216 °C.
Under `Cc1nc2ccc(C(=O)NS(=O)(=O)c3ccccc3)nc2n1Cc1ccc(C=C2SC(=O)NC2=O)cc1Cl` [Example 93, 5-(benzenesulfonylcarbamoyl)-3-[2-chloro-4-[(2,4-dioxo-1,3-thiazolidine-5-ylidene)methyl]benzyl]-2-methyl-3H-imidazo[4,5-b]pyridine] stands 271 to 274 °C; under `CCCCCS(=O)(=O)NC(=O)c1cc(C)c2nc(CC)n(Cc3ccc(-c4ccccc4)cc3)c2n1` [Example 16, 2-ethyl-7-methyl-5-(n-pentanesulfonylcarbamoyl)-3-(4-phenylbenzyl)-3H-imidazo[4,5-b]pyridine], 210 to 211 °C; under `Cc1nc2ccc(C(=O)NS(=O)(=O)c3ccccc3)cn2c1Cc1ccc(Cl)cc1Cl` [Example 56, 6-(benzenesulfonylcarbamoyl)-3-(2,4-dichlorobenzyl)-2-methylimidazo[1,2-a]pyridine], 308 to 310 °C.
In turn, `Cc1nc2ccc(C(=O)NS(=O)(=O)c3ccccc3)nc2n1Cc1ccc([S+](C)[O-])cc1Cl` (stereo not drawn) [Example 84, 5-(benzenesulfonylcarbamoyl)-3-(2-chloro-4-(methylsulfinyl)benzyl)-2-methyl-3H-imidazo[4,5-b]pyridine] displayed a melting point of 230 to 231 °C.
Consider `Cc1nc2ccc(C(=O)NS(=O)(=O)c3ccc(Cl)s3)nc2n1Cc1ccc(Cl)cc1Cl` [Example 65-4, 5-((5-chlorothiophene-2-yl)sulfonylcarbamoyl)-3-(2,4-dichlorobenzyl)-2-methyl-3H-imidazo[4,5-b]pyridine], for which the melting point was in the range of 206 to 207 °C.
With `CCCCCS(=O)(=O)NC(=O)c1cc(C)c2nc(C)n(Cc3ccc(-c4ccc(Cl)s4)cc3Cl)c2n1` [Example 193, 3-[2-chloro-4-(5-chlorothiophen-2-yl)benzyl]-2,7-dimethyl-5-(1-pentanesulfonylcarbamoyl)-3H-imidazo[4,5-b]pyridine], the melting point lay in the range of 215 to 217 °C.
Turning to `CCCCOc1ccc(Cn2c(C)nc3ccc(C(=O)NS(=O)(=O)c4ccccc4)nc32)c(Cl)c1` [Example 80, 5-(benzenesulfonylcarbamoyl)-3-(4-(n-butoxy)-2-chlorobenzyl)-2-methyl-3H-imidazo[4,5-b]pyridine], the melting point was in the range of 181 to 182 °C.
`Cc1cc(C(=O)NS(=O)(=O)c2ccccc2)nc2c1nc(C)n2Cc1ccc2ccccc2c1Br` [Example 104-2, 5-(benzenesulfonylcarbamoyl)-3-(1-bromonaphthalen-2-ylmethyl)-2,7-dimethyl-3H-imidazo[4,5-b]pyridine] came in with a melting point of 229 to 230 °C.
Molecule `CCCCCS(=O)(=O)NC(=O)c1ccc2nc(C)n(Cc3ccc(Cl)cc3C)c2n1` [Example 28-1, 3-(4-chloro-2-methylbenzyl)-2-methyl-5-(n-pentanesulfonylcarbamoyl)-3H-imidazo[4,5-b]pyridine] showed a melting point of 155 to 157 °C.
Under `CCCCCS(=O)(=O)NC(=O)c1ccc2c(=O)nc(C)n(Cc3ccc(Cl)cc3Cl)c2c1` [Example 47-1, 1-(2,4-dichlorobenzyl)-2-methyl-7-(1-n-pentanesulfonylcarbamoyl)-4(1H)-quinazolinone] stands 168 to 170 °C; under `CCCCS(=O)(=O)NC(=O)c1ccc2nnn(Cc3ccc(Cl)cc3Cl)c2c1` [Example 40, 6-(1-n-butanesulfonyl-carbamoyl)-1-(2,4-dichlorobenzyl)benzotriazole], 158 to 160 °C.
Turning to `Cc1nc2ccc(C(=O)NS(=O)(=O)c3ccccc3)nc2n1Cc1ccc(/C=C/c2ccccc2)cc1Cl` [Example 76, (E)-5-(benzenesulfonylcarbamoyl)-3-(2-chloro-4-(2-phenylethenyl)benzyl)-2-methyl-3H-imidazo[4,5-b]pyridine], the melting point lay in the range of 262 to 263 °C.
Consider `CCCCS(=O)(=O)NC(=O)c1ccc2c(c1)n(Cc1ccc(Cl)cc1Cl)c(=O)c(=O)n2C` [Example 50, 7-(1-n-butanesulfonyl-carbamoyl)-1-(2,4-dichlorobenzyl)-4-methyl-2,3-(1H, 4H)-quinoxalinedione], for which the melting point lay in the range of 243 to 246 °C.
For `Cc1nc2ccc(C(=O)NS(=O)(=O)/C=C/c3ccccc3)nc2n1Cc1ccc(Cl)cc1Cl` [Example 65-3, (E)-3-(2,4-dichlorobenzyl)-2-methyl-5-[(2-phenylethenyl)sulfonylcarbamoyl]-3H-imidazo[4,5-b]pyridine] the value was 192 to 194 °C; for `Cc1cc(C(=O)NS(=O)(=O)/C=C/c2ccccc2)nc2c1nc(C)n2Cc1ccc(Br)cc1Cl` [Example 106-2, (E)-3-(4-bromo-2-chlorobenzyl)-2,7-dimethyl-5-[(2-phenylethenyl)sulfonylcarbamoyl]-3H-imidazo[4,5-b]pyridine], 225 to 227 °C.
Turning to `Cc1nc2ccc(C(=O)NS(=O)(=O)/C=C/c3ccccc3)nc2n1Cc1ccc(Br)cc1Cl` [Example 66-1, (E)-3-(4-bromo-2-chlorobenzyl)-2-methyl-5-[(2-phenylethenyl)sulfonylcarbamoyl]-3H-imidazo[4,5-b]pyridine], the melting point is 204 to 205 °C.
For `CCCCCS(=O)(=O)NC(=O)c1ccc2sc(C)c(Cc3ccc(Cl)cc3Cl)c2c1` [Example 37, 3-(2,4-dichlorobenzyl)-2-methyl-5-(1-n-pentanesulfonylcarbamoyl)benzo[b]thiophene], the melting point was in the range of 158.5 to 159.3 °C.
